In brackets after ≈: the same amount, converted by molar mass.
Assays:
[1] = Cytotoxicity assay (resazurin-based viability); format: cell-based; settings: human, HEK293 cells, mean ± standard deviation, two separate experiments
Protocol: Fluorescence was measured using an EnSight plate reader (PerkinElmer, Waltham, MA, USA).

E. coli (ATCC 259233) = test: Bacterial growth inhibition assay; format: cell-based, Escherichia coli; design: MIC (Gentamycin, unit not given): unit not given beside the values; settings: for MIC: Escherichia coli, ATCC259233
Protocol: (§1) The prepared samples were tested for in vitro antimicrobial activity against E. faecalis, E. coli, P. aeruginosa, S. aureus, Streptococcus agalactiae and S. epidermis using gentamycin as a reference compound.
To determine and quantify antimicrobial activity, a bacteria growth inhibition assay in liquid media was executed. Compounds 2–3, 4, 8–10, 13–14, 16, 18, and 20 were tested against Staphylococcus aureus (ATCC 25923), Escherichia coli (ATCC 259233), Enterococcus faecialis (ATCC 29122), Pseudomonas aeruginosa (ATCC 27853) and Streptococcus agalactiae (ATCC 12386); all strains from LGC Standards (Teddington, UK). S. aureus, E. coli, and P. aeruginosa were grown in Muller Hinton broth (275730, Becton, Franklin Lakes, NJ, USA). E. faecalis and S. agalactiae were cultured in brain hearth infusion broth (53286, Sigma, St Louise, MO, USA). Fresh bacterial colonies were transferred in the respective medium and incubated at 37 °C overnight. The bacterial cultures were diluted to a culture density representing the log phase and µL/well were pipetted into a 96-well microtiter plate (734–2097, NunclonTM, Thermo Scientific, Waltham, MA, USA). The final cell density was 1500–15.000 colony forming units/well. The compound was diluted in 2% (v/v) DMSO in ddH2O, providing a final assay concentration of 50% of the prepared sample, since 50 µL of sample in DMSO/water were added to 50 µL bacterial culture. After adding the samples to the plates, they were incubated overnight at 37 °C and the growth was determined by measuring the optical density at λ = 600 nm (OD600) with a 1420 Multilabel Counter VICTOR3TM (Perkin Elmer, Waltham, MA, USA). A water sample was used as a reference control, growth medium without bacteria was used as a negative control and dilution series of gentamycin (A2712, Merck, Darmstadt, DE) from 32 to 0.01 µg/mL was used as positive control and visually inspected for bacterial growth. The positive control was used as a system suitability test and the results of the antimicrobial assay were only considered valid when positive control was passed. […]

[2] = system: HCT116 (human colon cancer); test: Antiproliferative assay (resazurin); format: cell-based; settings: Homo sapiens, HCT-116; 72 h compound incubation; mean ± sem, two separate experiments
Protocol: (§2) Compounds tested in the antiproliferative assays were tested in 11 dilution points (0.02 µM–40 µM or 0.04 µM–80 µM). […] HCT116 cells were maintained in McCoy’s 5A media (Life Technologies, CA, USA), MDA-MB-231 cells were cultured in DMEM media (Life Technologies) with 10 mM HEPES (Life Technologies), whilst PC-3 cells were maintained in RPMI media (Life Technologies). All media were supplemented with 10% heat-inactivated fetal bovine serum (Australian source; Corning, CA, USA) and all cells were incubated at 37 °C in a humidified incubator with 5% CO2. Cells were seeded in 384-well plates (Greiner Bio-One, NC, USA) using the respective complete media. After 24 h cell seeding, compounds were added and antiproliferative activity was determined using the resazurin assay after 72 h compound incubation. Briefly, cells were incubated with 60 µM resazurin (Cayman, MI, USA) for 6 h at 37 °C and fluorescence signals were measured using a microplate reader (EnSight, PerkinElmer, Waltham, MA, USA).

[3] = system: MDA-MB-231 (human breast adenocarcinoma); test: Antiproliferative assay (resazurin); format: cell-based; settings: Homo sapiens, MDA-MB-231; 72 h compound incubation; mean ± sem, two separate experiments
Protocol: as §2

[4] = system: PC-3 (human prostate cancer); test: Antiproliferative assay (resazurin); format: cell-based; settings: Homo sapiens; 72 h compound incubation; mean ± sem, two separate experiments
Protocol: as §2

[5] = Antiplasmodial imaging assay; format: cell-based, Plasmodium falciparum; settings: human (HEK293) and Plasmodium falciparum (3D7), HEK293 cells versus Plasmodium falciparum 3D7 culture; HEK293 vs 3D7; read-out: SI (selectivity index = cytotoxicity in HEK293/activity in 3D7)
Protocol: (§3) Compounds tested in the antiproliferative assays were tested in 11 dilution points (0.02 µM–40 µM or 0.04 µM–80 µM).
(§4) Antiplasmodial activity was determined as previously described by Duffy and Avery. […] After incubation, plates were stained with 4’,6-diamidino-2-phenylindole (DAPI) in a permeabilization buffer for 5 h at rt in the dark. Plates were imaged on the Opera confocal microplate image reader (PerkinElmer).

[6] = system: Plasmodium falciparum 3D7 strain; test: Antiplasmodial imaging assay; format: cell-based; settings: P. falciparum 3D7, 72 h, mean ± standard deviation, two separate experiments; for IC50: Plasmodium falciparum
Protocol: as §3, §4

S. aureus (ATCC 25923) = test: Bacterial growth inhibition assay; format: cell-based, Staphylococcus aureus; design: MIC (Gentamycin, unit not given): unit not given beside the values; settings: for MIC: Staphylococcus aureus, ATCC25923
Protocol: as §1
(§5) To determine and quantify antimicrobial activity, a bacteria growth inhibition assay in liquid media was executed. Compounds 2–3, 4, 8–10, 13–14, 16, 18, and 20 were tested against Staphylococcus aureus (ATCC 25923), Escherichia coli (ATCC 259233), Enterococcus faecialis (ATCC 29122), Pseudomonas aeruginosa (ATCC 27853) and Streptococcus agalactiae (ATCC 12386); all strains from LGC Standards (Teddington, UK). S. aureus, E. coli, and P. aeruginosa were grown in Muller Hinton broth (275730, Becton, Franklin Lakes, NJ, USA). E. faecalis and S. agalactiae were cultured in brain hearth infusion broth (53286, Sigma, St Louise, MO, USA). Fresh bacterial colonies were transferred in the respective medium and incubated at 37 °C overnight. The bacterial cultures were diluted to a culture density representing the log phase and µL/well were pipetted into a 96-well microtiter plate (734–2097, NunclonTM, Thermo Scientific, Waltham, MA, USA). The final cell density was 1500–15.000 colony forming units/well. The compound was diluted in 2% (v/v) DMSO in ddH2O, providing a final assay concentration of 50% of the prepared sample, since 50 µL of sample in DMSO/water were added to 50 µL bacterial culture. After adding the samples to the plates, they were incubated overnight at 37 °C and the growth was determined by measuring the optical density at λ = 600 nm (OD600) with a 1420 Multilabel Counter VICTOR3TM (Perkin Elmer, Waltham, MA, USA). A water sample was used as a reference control, growth medium without bacteria was used as a negative control and dilution series of gentamycin (A2712, Merck, Darmstadt, DE) from 32 to 0.01 µg/mL was used as positive control and visually inspected for bacterial growth. The positive control was used as a system suitability test and the results of the antimicrobial assay were only considered valid when positive control was passed. The final concentration of DMSO in the assays was ≤2% (v/v) and was known to have no effect in the tested bacteria. The data was processed using GraphPad Prism 8.

[7] = system: Streptococcus agalactiae (ATCC 12386); test: Bacterial growth inhibition assay; format: cell-based; design: MIC (Gentamycin, unit not given): unit not given beside the values; settings: for MIC: ATCC12386
Protocol: as §1, §5

[8] = system: E. faecalis, E. coli, P. aeruginosa, S. aureus, Streptococcus agalactiae and S. epidermis; test: Antimicrobial and biofilm inhibition assays, whole panel of tested strains; format: cell-based; settings: five bacterial strains and biofilm formation; tested up to 100 µM
Protocol: as §1
(§6) To determine and quantify antimicrobial activity, a bacteria growth inhibition assay in liquid media was executed. Compounds 2–3, 4, 8–10, 13–14, 16, 18, and 20 were tested against Staphylococcus aureus (ATCC 25923), Escherichia coli (ATCC 259233), Enterococcus faecialis (ATCC 29122), Pseudomonas aeruginosa (ATCC 27853) and Streptococcus agalactiae (ATCC 12386); all strains from LGC Standards (Teddington, UK). S. aureus, E. coli, and P. aeruginosa were grown in Muller Hinton broth (275730, Becton, Franklin Lakes, NJ, USA). E. faecalis and S. agalactiae were cultured in brain hearth infusion broth (53286, Sigma, St Louise, MO, USA). Fresh bacterial colonies were transferred in the respective medium and incubated at 37 °C overnight. The bacterial cultures were diluted to a culture density representing the log phase and µL/well were pipetted into a 96-well microtiter plate (734–2097, NunclonTM, Thermo Scientific, Waltham, MA, USA). […] After adding the samples to the plates, they were incubated overnight at 37 °C and the growth was determined by measuring the optical density at λ = 600 nm (OD600) with a 1420 Multilabel Counter VICTOR3TM (Perkin Elmer, Waltham, MA, USA). […]

[9] = system: S. epidermis (ATCC 35984); test: Biofilm formation inhibition assay; format: cell-based, Staphylococcus epidermidis; settings: inhibition of biofilm formation
Protocol: as §1
For testing the inhibition of biofilm formation, the biofilm-producing Staphylococcus epidermidis (ATCC 35984) was grown in Tryptic Soy Broth (TSB, 105459, Merck, Kenilworth, NJ, USA) overnight at 37 °C. The overnight culture was diluted in fresh medium with 1% glucose (D9434, Sigma) before being transferred to a 96-well microtiter plate; 50 µL/well were incubated overnight with 50 µL of the test compound dissolved in 2% (v/v) DMSO aq. added in duplicates. The bacterial culture was removed from the plate and the plate was washed with tap water. The biofilm was fixed at 65 °C for 1 h before 70 µL 0.1% crystal violet (115940, Millipore, Burlington, MA, USA) was added to the wells for 10 min of incubation and 70 µL of 70% ethanol was then added to each well and the plate incubated on a shaker for 5–10 min. Biofilm formation inhibition was assessed by the presence of violet color and measured at […] absorbance using a 1420 Multilabel Counter VICTOR3TM; 50 µL of a non-biofilm forming Staphylococcus haemolyticus (clinical isolate 8-7A, University Hospital of North Norway Tromsø, Norway) mixed in 50 µL autoclaved Milli-Q water was used as a control; 50 µL S. epidermidis mixed in 50 µL autoclaved Milli-Q water was used as the control for biofilm formation; and 50 µL TSB with 50 µL autoclaved Milli-Q water was used as a medium blank control.

E. faecalis (ATCC 29122) = test: Bacterial growth inhibition assay; format: cell-based, Enterococcus faecialis; design: MIC (Gentamycin, unit not given): unit not given beside the values
Protocol: as §1, §5

[10] = system: P. aeruginosa (ATCC 27853); test: Bacterial growth inhibition assay; format: cell-based, Pseudomonas aeruginosa; design: unit not given beside the values; settings: reference compound
Protocol: as §1, §6

| Compound | IC50 at 72 h [1] | MIC (E. coli (ATCC 259233)) | IC50 [2] | IC50 [3] | IC50 [4] | selectivity ratio at 72 h [5] | IC50 [6] | MIC (S. aureus (ATCC 25923)) | MIC [7] | activity against any of the tested strains [8] | 3D7 IC50 [6] | melting point | MBIC [9] | MIC (E. faecalis (ATCC 29122); Enterococcus faecalis, ATCC29122) | MIC (Gentamycin, unit not given) [10] | MIC (Gentamycin, unit not given) (E. faecalis (ATCC 29122); reference compound) | MIC (Gentamycin, unit not given) (E. coli (ATCC 259233); reference compound) | MIC (Gentamycin, unit not given) (S. aureus (ATCC 25923); reference compound) | MIC (Gentamycin, unit not given) ([7]; reference compound) |
| --- | --- | --- | --- | --- | --- | --- | --- | --- | --- | --- | --- | --- | --- | --- | --- | --- | --- | --- | --- |
| COc1cnc2cccc3c2c1Nc1ccccc1-3 [Compound 4b, 6-methoxy-7H-pyrido[4,3,2-gh]phenanthridine] | 3.657 ± 0.002 µM | 50 µM (≈ 12.4 µg/mL) | 0.166 ± 0.016 µM | 1 ± 0.297 µM | 0.024 ± 0.003 µM | 4.2 | 0.866 ± 0.002 µM | 75 µM (≈ 18.6 µg/mL) | 75 µM (≈ 18.6 µg/mL) |  |  |  |  |  |  |  |  |  |  |
| COC1=CN(C)c2cccc3c2c1nc1ccccc13 [Compound 8b, 6-Methoxy-4-methyl-4H-pyrido[4,3,2-gh]phenanthridine] | 5.057 ± 0.045 µM |  | 0.871 ± 0.172 µM | 0.814 ± 0.162 µM | 4.54 ± 0.361 µM | 3.3 | 1.55 ± 0.027 µM |  |  | complete loss of activity |  |  |  |  |  |  |  |  |  |
| c1ccc2c(c1)[nH]c1ccc3ncccc3c12 [Compound 9a, 7H-Pyrido[2,3-c]carbazole] | > 80 µM |  | 20 µM | 21.5 µM | 17.8 µM | > 11.7 | 6.825 ± 0.061 µM |  | 100 µM (≈ 21.8 µg/mL) |  | little to no activity | 204 to 205 °C | 100 µM |  |  |  |  |  |  |
| Fc1ccc2[nH]c3ccc4ncccc4c3c2c1 [Compound 9b, 10-Fluoro-7H-pyrido[2,3-c]carbazole] |  |  |  |  |  |  |  |  |  |  |  | 256 to 257 °C | 100 µM |  |  |  |  |  |  |
| Cn1cc2c3ccccc3nc-2c2ccccc21 [Isocryptolepine (3a), isocryptolepine] | 2.07 ± 0.07 µM | 100 µM (≈ 23.2 µg/mL) | 0.667 ± 0.045 µM | 0.695 ± 0.13 µM | 1.821 ± 0.007 µM | 1.7 | 1.21 ± 0.084 µM | 100 µM (≈ 23.2 µg/mL) | 100 µM (≈ 23.2 µg/mL) |  |  |  | 100 µM | 100 µM (≈ 23.2 µg/mL) |  |  |  |  |  |
| gentamycin [reference compound] |  |  |  |  |  |  |  |  |  |  |  |  |  |  | 0.25 | 8 | 0.13 | 0.06 | 4 |

— paper PMC8198049, “Synthesis and Evaluation of the Tetracyclic Ring-System of Isocryptolepine and Regioisomers for Antimalarial, Antiproliferative and Antimicrobial Activities” (Molecules, 2021)
